This is an account of results in PMC3579865, “An Albumin-Derived Peptide Scaffold Capable of Binding and Catalysis” (PLoS ONE, 2013).

The test deals with T1, human serum albumin (HSA) (Homo sapiens, UniProt P02768).
T1 construct: gene ALB; native full-length HSA, essentially fatty acid free; also measured on GST-HSA100 (A194 to E294)
In words: tryptophan fluorescence quenching titration (Stern-Volmer and Hill analysis). In kind it is binding.

T1 sequence (P02768 25-609): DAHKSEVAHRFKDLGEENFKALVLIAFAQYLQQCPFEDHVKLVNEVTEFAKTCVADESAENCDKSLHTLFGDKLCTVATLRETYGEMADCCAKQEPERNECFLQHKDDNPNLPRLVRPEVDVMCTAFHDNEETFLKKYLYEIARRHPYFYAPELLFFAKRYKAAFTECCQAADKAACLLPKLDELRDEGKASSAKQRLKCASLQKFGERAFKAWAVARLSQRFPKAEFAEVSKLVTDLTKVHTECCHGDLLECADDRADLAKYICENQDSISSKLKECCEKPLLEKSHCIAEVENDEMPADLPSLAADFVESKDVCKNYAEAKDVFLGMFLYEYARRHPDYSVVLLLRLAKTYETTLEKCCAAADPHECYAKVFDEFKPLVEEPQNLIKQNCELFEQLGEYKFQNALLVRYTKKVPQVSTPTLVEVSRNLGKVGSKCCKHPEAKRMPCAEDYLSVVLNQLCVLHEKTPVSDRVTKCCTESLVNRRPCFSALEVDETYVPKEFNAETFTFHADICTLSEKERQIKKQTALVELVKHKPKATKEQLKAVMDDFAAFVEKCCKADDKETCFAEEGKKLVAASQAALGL

As to `O=C1Nc2ccc(Cl)cc2[C@@](C#CC2CC2)(C(F)(F)F)O1` [2a, efavirenz], the “Efavirenz / HSA” value is given as 1.89±0.04 10^−4 molL^−1.
